Literature values as cited in US11028348B2, “Naturally-derived antimicrobial cleaning solutions” (ProNatural Brands LLC, priority 2014, dated 2021).

Conditions: standard pKa

pKa1: 3.1 | pKa2: 4.8 | pKa3: 6.4
Compound: O=C(O)CC(O)(CC(=O)O)C(=O)O [citric acid]
